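Briefly, cells in 96-well plates were exposed to five compound concentrations for 48 h, and endpoints were estimated by linear interpolation. Definition used: TGI = concentration required for complete inhibition of growth.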
Tests used:
Test in all cases: DTP human tumour cell line panel, 48 h
[1] = system: UACC-257 melanoma
[2] = system: ACHN renal
[3] = system: HT29 colon
[4] = system: HCT-15 colon
[5] = system: SK-MEL-5 melanoma
[6] = system: OVCAR-5 ovarian
[7] = system: 786-0 renal
[8] = system: LOX IMVI melanoma
[9] = system: SK-MEL-28 melanoma
[10] = system: M14 melanoma
[11] = system: SF-539 CNS
[12] = system: OVCAR-8 ovarian
[13] = system: RXF 393 renal
[14] = system: HOP-92 NSCLC
[15] = system: CAKI-1 renal
[16] = system: OVCAR-3 ovarian
[17] = system: SNB-19 CNS
[18] = system: NCI-H522 lung
[19] = system: EKVX NSCLC
[20] = system: DLD-1 colon
[21] = system: DMS 273 small cell lung
[22] = system: A498 renal
[23] = system: LXFL 529 NSCLC
[24] = system: SNB-75 CNS
[25] = system: SF-268 CNS
[26] = system: UACC-62 melanoma
[27] = system: SR leukemia
[28] = system: HL-60(TB) leukemia
[29] = system: KM20L2 colon
[30] = system: UO-31 renal
[31] = system: SN12C renal
[32] = system: RXF-631 renal
[33] = system: HCT-116 colon
[34] = system: HCC-2998 colon
[35] = system: CCRF-CEM leukemia
[36] = system: MALME-3M melanoma
[37] = system: IGROV1 ovarian
[38] = system: RPMI-8226 leukemia
[39] = system: M19-MEL melanoma
[40] = system: NCI-H460 lung
[41] = system: SK-MEL-2 melanoma
[42] = system: A549 NSCLC
[43] = system: MOLT-4 leukemia
[44] = system: U251 CNS
[45] = system: K-562 leukemia
[46] = system: SNB-78 CNS
[47] = system: SW-620 colon
[48] = system: SF-295 CNS
[49] = system: OVCAR-4 ovarian
[50] = system: NCI-H23 lung
[51] = system: NCI-H226 lung
[52] = system: DMS 114 small cell lung
[53] = system: TK-10 renal
[54] = system: HOP-18 NSCLC
[55] = system: KM12 colon
[56] = system: COLO 205 colon
[57] = system: HOP-62 NSCLC
[58] = system: XF 498 CNS
[59] = system: SK-OV-3 ovarian

COc1ccc(NC(=O)CC2SC(=Nc3ccc(Cl)cc3C)NC2=O)c([N+](=O)[O-])c1 (stereo not given)
TGI [1]: > 100 µM | TGI [2]: > 100 µM | TGI [3]: > 100 µM | TGI [4]: > 100 µM | TGI [5]: > 100 µM | TGI [6]: > 100 µM | TGI [7]: > 100 µM | TGI [8]: > 100 µM | TGI [9]: > 100 µM | TGI [10]: > 100 µM | TGI [11]: > 100 µM | TGI [12]: > 100 µM | TGI [13]: > 100 µM | TGI [14]: > 100 µM | TGI [15]: > 100 µM | TGI [16]: > 100 µM | TGI [17]: > 100 µM | TGI [18]: > 100 µM | TGI [19]: > 100 µM | TGI [20]: > 100 µM | TGI [21]: > 100 µM | TGI [22]: > 100 µM | TGI [23]: > 100 µM | TGI [24]: > 100 µM | TGI [25]: > 100 µM | TGI [26]: > 100 µM | TGI [27]: > 100 µM | TGI [28]: > 100 µM | TGI [29]: > 100 µM | TGI [30]: > 100 µM | TGI [31]: > 100 µM | TGI [32]: > 100 µM | TGI [33]: > 100 µM | TGI [34]: > 100 µM | TGI [35]: > 100 µM | TGI [36]: > 100 µM | TGI [37]: > 100 µM | TGI [38]: > 100 µM | TGI [39]: > 100 µM | TGI [40]: > 100 µM | TGI [41]: > 100 µM | TGI [42]: > 100 µM | TGI [43]: > 100 µM | TGI [44]: > 100 µM | TGI [45]: > 100 µM | TGI [46]: > 100 µM | TGI [47]: > 100 µM | TGI [48]: > 100 µM | TGI [49]: > 100 µM | TGI [50]: > 100 µM | TGI [51]: > 100 µM | TGI [52]: > 100 µM | TGI [53]: > 100 µM

Nc1nc2c(nnn2C2C=C(CO)C(O)C2O)c(=O)[nH]1 (stereo not given)
TGI [54]: > 100 µM | TGI [1]: > 100 µM | TGI [2]: > 100 µM | TGI [3]: > 100 µM | TGI [4]: > 100 µM | TGI [5]: > 100 µM | TGI [6]: > 100 µM | TGI [7]: > 100 µM | TGI [8]: > 100 µM | TGI [9]: > 100 µM | TGI [10]: > 100 µM | TGI [11]: > 100 µM | TGI [12]: > 100 µM | TGI [55]: > 100 µM | TGI [13]: > 100 µM | TGI [14]: > 100 µM | TGI [15]: > 100 µM | TGI [16]: > 100 µM | TGI [17]: > 100 µM | TGI [18]: > 100 µM | TGI [19]: > 100 µM | TGI [20]: > 100 µM | TGI [21]: > 100 µM | TGI [22]: > 100 µM | TGI [56]: > 100 µM | TGI [57]: > 100 µM | TGI [23]: > 100 µM | TGI [24]: > 100 µM | TGI [25]: > 100 µM | TGI [26]: > 100 µM | TGI [27]: > 100 µM | TGI [29]: > 100 µM | TGI [30]: > 100 µM | TGI [31]: > 100 µM | TGI [58]: > 100 µM | TGI [33]: > 100 µM | TGI [34]: > 100 µM | TGI [35]: > 100 µM | TGI [36]: > 100 µM | TGI [37]: > 100 µM | TGI [39]: > 100 µM | TGI [40]: > 100 µM | TGI [41]: > 100 µM | TGI [42]: > 100 µM | TGI [43]: > 100 µM | TGI [59]: > 100 µM | TGI [44]: > 100 µM | TGI [45]: > 100 µM | TGI [46]: > 100 µM | TGI [47]: > 100 µM | TGI [48]: > 100 µM | TGI [49]: > 100 µM | TGI [50]: > 100 µM | TGI [51]: > 100 µM | TGI [52]: > 100 µM | TGI [53]: > 100 µM

COC(=O)/C(=C1\OC(=O)C(c2ccc(Cl)cc2)=C1O)c1ccc(Cl)cc1
TGI [54]: > 100 µM | TGI [1]: 48.8 µM | TGI [2]: 79.2 µM | TGI [3]: > 100 µM | TGI [6]: 79.5 µM | TGI [7]: > 100 µM | TGI [8]: 64.4 µM | TGI [9]: > 100 µM | TGI [10]: 97.5 µM | TGI [11]: 67.7 µM | TGI [12]: > 100 µM | TGI [55]: 67.8 µM | TGI [13]: 63 µM | TGI [14]: 50.4 µM | TGI [15]: 57.9 µM | TGI [16]: 87.6 µM | TGI [17]: 94.5 µM | TGI [18]: 50.4 µM | TGI [19]: 72.5 µM | TGI [20]: > 100 µM | TGI [21]: 36.3 µM | TGI [22]: 47.8 µM | TGI [56]: 45 µM | TGI [57]: 41.4 µM | TGI [23]: 87.7 µM | TGI [24]: 73 µM | TGI [25]: > 100 µM | TGI [26]: 56.9 µM | TGI [27]: 80.9 µM | TGI [28]: 32.9 µM | TGI [29]: 88.4 µM | TGI [30]: 68.9 µM | TGI [31]: > 100 µM | TGI [58]: 36.1 µM | TGI [33]: 50.4 µM | TGI [34]: 86.5 µM | TGI [35]: > 100 µM | TGI [36]: 55.7 µM | TGI [37]: > 100 µM | TGI [38]: 55.2 µM | TGI [39]: 66.2 µM | TGI [40]: 92.4 µM | TGI [42]: 84.3 µM | TGI [43]: 65.5 µM | TGI [59]: 84.6 µM | TGI [44]: > 100 µM | TGI [45]: 86.9 µM | TGI [46]: > 100 µM | TGI [47]: > 100 µM | TGI [48]: 43 µM | TGI [49]: > 100 µM | TGI [50]: 40.3 µM | TGI [51]: 58.5 µM | TGI [52]: 51.3 µM | TGI [53]: 75.5 µM

NC1=NN(c2ccccc2)C(=O)C1/C(=N\NC(=O)c1cc2ccccc2cc1O)C(=O)Nc1ccc(Cl)c(Cl)c1 (stereo not given)
TGI [54]: > 100 µM | TGI [1]: 84 µM | TGI [2]: > 100 µM | TGI [3]: > 100 µM | TGI [4]: > 100 µM | TGI [5]: 79.4 µM | TGI [6]: > 100 µM | TGI [7]: > 100 µM | TGI [8]: > 100 µM | TGI [9]: > 100 µM | TGI [10]: 72.5 µM | TGI [11]: > 100 µM | TGI [12]: > 100 µM | TGI [55]: > 100 µM | TGI [13]: > 100 µM | TGI [14]: 92 µM | TGI [15]: > 100 µM | TGI [16]: 54.8 µM | TGI [17]: > 100 µM | TGI [18]: 37.2 µM | TGI [19]: 63.6 µM | TGI [20]: > 100 µM | TGI [21]: 40.7 µM | TGI [22]: > 100 µM | TGI [56]: 36.6 µM | TGI [57]: > 100 µM | TGI [23]: > 100 µM | TGI [24]: > 100 µM | TGI [25]: > 100 µM | TGI [26]: 44.1 µM | TGI [27]: 5.71 µM | TGI [28]: 39.8 µM | TGI [29]: 65.8 µM | TGI [30]: > 100 µM | TGI [31]: > 100 µM | TGI [58]: 71.6 µM | TGI [33]: > 100 µM | TGI [34]: > 100 µM | TGI [35]: 57.7 µM | TGI [36]: 97.6 µM | TGI [37]: > 100 µM | TGI [38]: > 100 µM | TGI [40]: 85.5 µM | TGI [41]: > 100 µM | TGI [42]: > 100 µM | TGI [43]: 75.6 µM | TGI [44]: > 100 µM | TGI [45]: > 100 µM | TGI [46]: > 100 µM | TGI [47]: > 100 µM | TGI [48]: > 100 µM | TGI [49]: > 100 µM | TGI [50]: 63.5 µM | TGI [51]: > 100 µM | TGI [52]: 82 µM | TGI [53]: > 100 µM

— PubChem BioAssay (NCI)
